Data reported in PubChem BioAssay AID489032 (Sanford-Burnham Center for Chemical Genomics, 2010).
The source made the active and inactive calls. The rule behind the calls is not given here.

Tested on: UPR adaptive arm reporter cells, luciferase luminescence
Test: adaptive unfolded protein response reporter activation – cell-based, luciferase luminescence, dose response (AID 489032)

Structure (SMILES)	EC50
COc1ccc(/C=C/c2nc3cc(-c4ccccc4)ccc3o2)cc1O	> 80 µM (inactive)
O=C(Oc1ccccc1/C=C\C(=O)c1cc2ccccc2o1)c1cccc(F)c1	> 80 µM (inactive)
O=C(Nc1ccc2oc(-c3ccccc3Cl)nc2c1)c1cncc(Br)c1	> 80 µM (inactive)
COc1ccc(NC(=O)c2cc3c(=O)n(C)c4ccccc4c3n2C)cc1Cl	> 80 µM (inactive)
Cc1cc(N2CCN(c3nc(-c4ccc([N+](=O)[O-])cc4)cs3)CC2)c2ccccc2n1	> 80 µM (inactive)
CC1=CC(C)[C@H](/C=N/n2c(=O)[nH]c3c([nH]c4ccc(C)cc43)c2=O)C(C)C1 (stereo not given in full)	> 80 µM (inactive)
COc1cc(SC#N)ccc1N=Cc1c(C)[nH]n(-c2ccc(Cl)cc2)c1=O	> 80 µM (inactive)
Oc1cccc(-c2nc3c4c(ncn3n2)-c2ccccc2CC42CCCC2)c1	> 80 µM (inactive)
Cc1ccc(-c2nnn(CC(=O)N(Cc3cccs3)C(C(=O)NC3CCCCC3)c3ccco3)n2)o1 (stereo not given)	> 80 µM (inactive)
Cc1ccc(-n2c(O)c(/C=N/c3ncc(Br)cc3Br)c(=O)[nH]c2=O)cc1	26.8 µM (inactive)
CCOC(=O)N1CCN(S(=O)(=O)c2ccc(C(=O)Nc3nc4c(s3)CC(C)CC4)cc2)CC1 (stereo not given)	> 80 µM (inactive)
O=C(CSc1nc2ccc(Nc3nc(N4CCOCC4)nc(N4CCOCC4)n3)cc2s1)Nc1ccccc1F	11.7 µM
NS(=O)(=O)c1ccc(N/N=C/c2cn(-c3ccccc3)nc2-c2ccccc2)c([N+](=O)[O-])c1	> 80 µM (inactive)
NS(=O)(=O)c1ccc(N=Cc2c(O)n(C3CCCCC3)c(=O)n(C3CCCCC3)c2=O)cc1	> 80 µM (inactive)
N#Cc1ccc(-c2ccc(Cl)cc2)nc1SCC(=O)c1cccc(Cl)c1	11 µM
COc1ccc2nc(C)cc(SCC(=O)N/N=C/c3cccc4ccccc34)c2c1	17.8 µM
COc1cccc(-c2c(-c3cc(OC)cc(OC)c3)n(C)c3ccc(-c4cnc(N5CCOCC5)nc4)cc23)c1	54.9 µM (inactive)
Cc1cc(NC(=O)CSc2ccc(-c3nc4cc(C)c(C)cc4[nH]3)cn2)no1	> 80 µM (inactive)
Nc1nc(Nc2cccc(F)c2)nc2ccccc12	73.9 µM (inactive)
COc1ccc2[nH]c3nc(SCc4nnc(-c5ccc(C)cc5)o4)nnc3c2c1	27.8 µM (inactive)
Cc1ccc2nc(Nc3nc(C)cc(-c4ccccc4)n3)[nH]c(=O)c2c1	> 80 µM (inactive)
Cc1ccc2nc(NC(=O)c3ccc(-c4nc5ccccc5s4)s3)sc2c1	> 80 µM (inactive)

Structure (SMILES)	EC50
CCOc1ccc2nc(NC3=NC(c4ccc(OC)cc4)CC(=O)N3)nc(C)c2c1 (stereo not given)	15.6 µM
Cc1ccc(C(=O)Nc2cc(S(=O)(=O)N3CCOCC3)ccc2N2CCCC2)cc1	63.2 µM (inactive)
CC1CCN(Cc2c(C(=O)N/N=C/c3ccc(C(C)C)cc3)nnn2-c2nonc2N)CC1	> 80 µM (inactive)
Cc1ccc(-c2nc(N/N=C/c3cccc([N+](=O)[O-])c3)c3ccccc3n2)cc1	> 80 µM (inactive)
CCCn1c(Nc2nc3ccccc3n2C)nc2ccccc21	> 80 µM (inactive)
CCOc1ccccc1-n1c(SCC(=O)Nc2ccc(CC)cc2)nc2n[nH]c(C)c2c1=N	5.91 µM
CCCCNc1c(-c2ccc(SC(C)CC)cc2)nc2cnccn12 (stereo not given)	> 80 µM (inactive)
CCOC(=O)c1c(NC(=O)c2cc3n(n2)C(C(F)(F)F)CC(c2cccs2)N3)sc(C)c1C (stereo not given)	15.9 µM
Cc1ccc(Nc2nc(NCc3ccco3)c3ccccc3n2)cc1	17.8 µM
CCOC(=O)/C(=C\c1ccccc1)C(=O)c1cc(C(C)=O)c(Nc2ccccc2)s1	> 80 µM (inactive)
CC(C)(C)C(=O)NC(=S)NNC(=O)C(c1ccccc1)c1ccccc1	27 µM (inactive)
C=CCn1c(O)c(C2=c3ccccc3=NC2=O)sc1=Nc1ccc(O)cc1	38.7 µM (inactive)
Cc1cc(C)cc(NC(=O)/C(C#N)=C/c2cn(CC(=O)NCc3ccco3)c3ccccc23)c1	9.17 µM
O=C(Nc1nc(-c2ccc(F)c(F)c2)cs1)Nc1ccc(F)cc1F	37.2 µM (inactive)
Cc1cc(C)c2sc(N(CCCN(C)C)C(=O)c3ccc(S(=O)(=O)N4CCCc5ccccc54)cc3)nc2c1	> 80 µM (inactive)
CCOc1cc(/C=N/N=C(\N)c2nonc2N)cc(Br)c1OCc1cccc2ccccc12	> 80 µM (inactive)
Cc1cc(NC(=O)CSc2nc3cc(Cl)ccc3c(=O)n2Cc2ccco2)no1	> 80 µM (inactive)
COc1ccc(-c2ccc3c(c2)S(=O)(=O)c2cccc(C(=O)NCCOc4ccccc4Cl)c2C3=O)cc1OC	> 80 µM (inactive)
c1ccc(Oc2c3ccccc3nc3ccccc23)cc1	> 80 µM (inactive)
CCOC(=O)c1nnc(-c2ccccc2)nc1Sc1ccccc1Cl	> 80 µM (inactive)
O=c1oc(CCCO)cc2ccc(/C=C/c3cccc([N+](=O)[O-])c3)cc12	36.8 µM (inactive)
FC(F)(F)c1nnc2c(Sc3ccccc3)nc3ccc(Cl)cc3n12	> 80 µM (inactive)

Structure (SMILES)	EC50
COc1ccc(/C=N/Nc2nnc(-c3ccccc3)c(=O)[nH]2)cc1	19.8 µM
O=C(/C=C/c1ccc(Cl)cc1)NC(=S)Nc1ccc(N2CCOCC2)c(Cl)c1	> 80 µM (inactive)
Cc1cc(C)c2c(CCl)cc(=O)oc2c1	> 80 µM (inactive)
O=Cc1cc2ccccc2nc1SCc1ccc(Cl)c(Cl)c1	52.3 µM (inactive)
COc1ccc2[nH]c3c(c2c1)CCN1C(=O)C(CC(=O)NC/C=C(\C)CCC=C(C)C)C[C@H](C(=O)N2CCOCC2)[C@@]31CCC1CCCC1 (stereo not given in full)	> 80 µM (inactive)
CC1CN(S(=O)(=O)c2ccc(C(=O)Nc3nc(-c4cc5ccccc5o4)cs3)cc2)CC(C)O1 (stereo not given)	> 80 µM (inactive)
O=c1[nH]c(O)c(/C=C2/C=CC(c3cc(Cl)ccc3Cl)=N2)c(=O)[nH]1	9.68 µM
CC1CCc2cc(F)ccc2N1C(=O)CSc1nnc2c(n1)[nH]c1ccc(F)cc12 (stereo not given)	> 80 µM (inactive)
COc1ccc2cc(C)c3nnc(SCC(=O)Nc4nc(-c5ccc(F)cc5)cs4)n3c2c1	23.7 µM (inactive)
Cc1nn(Cc2ccccc2)c(C)c1NC(=O)CSc1nc(C2CC2)nc2c1cnn2-c1ccccc1	47.2 µM (inactive)
O=C(C[n+]1ccc(-c2cc(C(=O)Nc3cccc(C(F)(F)F)c3)c3ccccc3n2)cc1)c1cccc([N+](=O)[O-])c1	> 80 µM (inactive)
O=C(NCc1ccccc1Cl)c1cccc2c1C(=O)c1ccc(-c3ccc(OC(F)(F)F)cc3)cc1S2(=O)=O	> 80 µM (inactive)
N#Cc1ccccc1NC(=O)COc1c(Br)cc(Br)c2cccnc12	> 80 µM (inactive)
Brc1cc(Br)c2ncnc(N3CCCCC3)c2c1	44.5 µM (inactive)
O=Cc1cc2ccccc2nc1SCc1ccc(Cl)cc1	40.2 µM (inactive)
O=c1[nH]c(-c2ccc(-c3cccc(Cl)c3)o2)nc2ccccc12	13.7 µM
CCOc1cc(/C=C(\C#N)c2[nH]nc(N)c2C#N)ccc1O	> 80 µM (inactive)
O=C(Nc1ccc([N+](=O)[O-])cc1)c1nc[nH]c1C(=O)NC1CCCCC1	> 80 µM (inactive)
CC(C)c1ccc(/C=C/C(=O)Nc2nc3ccc([N+](=O)[O-])cc3s2)cc1	> 80 µM (inactive)
Cc1nn(Cc2c(Cl)cccc2Cl)c(C)c1NC(=O)c1sc2ccccc2c1Cl	29.8 µM (inactive)
NS(=O)(=O)c1ccc(N/N=C/c2cn(-c3ccccc3)nc2-c2cccs2)c([N+](=O)[O-])c1	> 80 µM (inactive)
